Experimental data taken from ChEMBL document CHEMBL1138088, “Design and synthesis of selective keto-1,2,4-oxadiazole-based tryptase inhibitors” (Bioorg Med Chem Lett, 2006).

Experiments:
[1] = Steady state volume of distribution in rat at 0.5 mg/kg, iv; type: ADME, organism-based; parameters: dose 0.5 mg/kg, route intravenous; settings: in vivo, read-out: Vss
[2] = Mean residence time in rat at 0.5 mg/kg, iv; type: ADME, organism-based; parameters: dose 0.5 mg/kg, route intravenous; settings: in vivo
[3] = AUC in rat at 0.5 mg/kg, iv; type: ADME, organism-based; parameters: dose 0.5 mg/kg, route intravenous; settings: plasma
[4] = Terminal half life in rat at 0.5 mg/kg, iv; type: ADME, organism-based; parameters: dose 0.5 mg/kg, route intravenous; settings: in vivo
[5] = Oral absorption in rat at 5 mg/kg, po; type: ADME, organism-based; parameters: dose 5 mg/kg, route oral; settings: in vivo
[6] = Oral bioavailability in rat at 5 mg/kg, po; type: ADME, organism-based; settings: in vivo
[7] = Terminal half life in rat at 5 mg/kg, po; type: ADME, organism-based; parameters: dose 5 mg/kg, route oral; settings: in vivo
[8] = target: Trypsin (Homo sapiens, UniProt P07477+P07478+P35030); test: Inhibition of trypsin; type: protein assay
[9] = Cmax in rat at 0.5 mg/kg, iv; type: ADME, organism-based; parameters: dose 0.5 mg/kg, route intravenous; settings: in vivo
[10] = Clearance in rat at 0.5 mg/kg, iv; type: ADME, organism-based; parameters: dose 0.5 mg/kg, route intravenous; settings: in vivo
[11] = Central volume of distribution in rat at 0.5 mg/kg, iv; type: ADME, organism-based; parameters: dose 0.5 mg/kg, route intravenous; settings: in vivo, read-out: Vc
[12] = target: Tryptase beta-1 (Homo sapiens, UniProt Q15661); test: Inhibition of human B tryptase; settings: read-out: Ki app
[13] = organism: Homo sapiens; test: Selectivity for tryptase over trypsin
[14] = target: Prothrombin (Homo sapiens, UniProt P00734); test: Inhibition of thrombin; settings: read-out: Ki app
[15] = target: Plasminogen (Homo sapiens, UniProt P00747); test: Inhibition of plasmin; settings: read-out: Ki app
[16] = target: Plasma kallikrein (Homo sapiens, UniProt P03952); test: Inhibition of kallikrein; settings: read-out: Ki app
[17] = target: Vitamin K-dependent protein C (Homo sapiens, UniProt P04070); test: Inhibition of APC; settings: read-out: Ki app
[18] = target: Chymotrypsinogen B (Homo sapiens, UniProt P17538); test: Inhibition of chymotrypsin; settings: read-out: Ki app
[19] = Inhibition of elastase; parameters: species or system Homo sapiens; settings: read-out: Ki app
[20] = target: T1, Chymase (Homo sapiens, UniProt P23946); test: Inhibition of chymase; settings: read-out: Ki app
T1 sequence (P23946 whole entry): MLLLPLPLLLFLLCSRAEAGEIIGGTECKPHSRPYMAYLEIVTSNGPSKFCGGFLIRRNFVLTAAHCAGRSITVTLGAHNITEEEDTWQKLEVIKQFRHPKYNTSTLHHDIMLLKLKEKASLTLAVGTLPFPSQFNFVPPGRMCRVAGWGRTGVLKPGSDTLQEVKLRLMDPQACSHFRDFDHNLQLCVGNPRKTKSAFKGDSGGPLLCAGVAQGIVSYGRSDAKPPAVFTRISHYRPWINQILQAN

[21] = target: Urokinase-type plasminogen activator (Homo sapiens, UniProt P00749); test: Inhibition of urokinase; settings: read-out: Ki app
[22] = target: T2, Granzyme K (Homo sapiens, UniProt P49863); test: Inhibition of granzyme K; settings: read-out: Ki app
T2 sequence (P49863 whole entry): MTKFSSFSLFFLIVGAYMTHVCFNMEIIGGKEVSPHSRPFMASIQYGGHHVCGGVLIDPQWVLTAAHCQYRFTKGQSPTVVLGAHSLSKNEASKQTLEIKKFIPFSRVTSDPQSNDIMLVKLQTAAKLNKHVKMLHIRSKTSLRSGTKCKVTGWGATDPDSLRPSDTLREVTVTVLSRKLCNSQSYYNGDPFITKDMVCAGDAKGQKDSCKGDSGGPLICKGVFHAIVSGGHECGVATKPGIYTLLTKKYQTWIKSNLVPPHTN

[23] = target: T3, Cathepsin G (Homo sapiens, UniProt P08311); test: Inhibition of cathepsin G; settings: read-out: Ki app
T3 sequence (P08311 whole entry): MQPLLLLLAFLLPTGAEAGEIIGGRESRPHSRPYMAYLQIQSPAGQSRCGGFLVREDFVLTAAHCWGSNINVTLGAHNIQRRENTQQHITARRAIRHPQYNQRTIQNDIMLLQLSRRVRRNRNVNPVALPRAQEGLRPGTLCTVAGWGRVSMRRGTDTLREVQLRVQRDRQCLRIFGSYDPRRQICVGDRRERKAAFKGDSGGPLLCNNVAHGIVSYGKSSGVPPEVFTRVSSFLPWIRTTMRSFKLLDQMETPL

[24] = target: T4, Coagulation factor VII (Homo sapiens, UniProt P08709); test: Inhibition of factor 7a; settings: read-out: Ki app
T4 sequence (P08709 whole entry): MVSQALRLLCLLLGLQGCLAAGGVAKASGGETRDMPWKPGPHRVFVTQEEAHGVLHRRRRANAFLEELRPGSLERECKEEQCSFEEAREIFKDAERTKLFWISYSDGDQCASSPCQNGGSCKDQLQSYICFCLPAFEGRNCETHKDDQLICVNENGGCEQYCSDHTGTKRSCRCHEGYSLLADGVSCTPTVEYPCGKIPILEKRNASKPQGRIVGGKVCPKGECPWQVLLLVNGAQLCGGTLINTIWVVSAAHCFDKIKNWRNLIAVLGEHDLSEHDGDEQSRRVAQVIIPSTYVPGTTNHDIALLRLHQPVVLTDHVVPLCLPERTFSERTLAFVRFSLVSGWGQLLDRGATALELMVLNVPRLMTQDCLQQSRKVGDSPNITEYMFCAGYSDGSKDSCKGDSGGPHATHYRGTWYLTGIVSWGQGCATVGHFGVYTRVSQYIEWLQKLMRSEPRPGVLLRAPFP

[25] = target: Coagulation factor X (Homo sapiens, UniProt P00742); test: Inhibition of factor 10a; settings: read-out: Ki app
[26] = target: Coagulation factor IX (Homo sapiens, UniProt P00740); test: Inhibition of factor 9a; settings: read-out: Ki app
[27] = target: Coagulation factor XI (Homo sapiens, UniProt P03951); test: Inhibition of factor 11a; settings: read-out: Ki app
Sequence of Coagulation factor XI (P03951 19-387 limits assumed): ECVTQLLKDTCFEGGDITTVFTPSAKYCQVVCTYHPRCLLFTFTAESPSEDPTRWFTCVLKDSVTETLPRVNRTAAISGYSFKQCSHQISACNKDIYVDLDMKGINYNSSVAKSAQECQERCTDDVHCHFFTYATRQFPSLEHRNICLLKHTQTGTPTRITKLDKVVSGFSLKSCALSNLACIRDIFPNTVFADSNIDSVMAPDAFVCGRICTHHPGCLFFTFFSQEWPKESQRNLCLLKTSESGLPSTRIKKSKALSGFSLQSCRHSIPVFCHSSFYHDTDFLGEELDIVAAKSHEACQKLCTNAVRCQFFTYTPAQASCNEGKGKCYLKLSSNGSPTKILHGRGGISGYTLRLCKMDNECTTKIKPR
Sequence of Coagulation factor XI (P03951 388-625 limits assumed): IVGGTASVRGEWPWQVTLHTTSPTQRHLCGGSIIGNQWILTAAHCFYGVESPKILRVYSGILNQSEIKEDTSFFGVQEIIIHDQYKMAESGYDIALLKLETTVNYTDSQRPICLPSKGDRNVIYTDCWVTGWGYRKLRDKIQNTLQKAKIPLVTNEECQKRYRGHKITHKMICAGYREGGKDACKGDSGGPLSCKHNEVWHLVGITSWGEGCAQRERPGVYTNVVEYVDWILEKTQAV

Sequence of Tryptase beta-1 (Q15661 whole entry): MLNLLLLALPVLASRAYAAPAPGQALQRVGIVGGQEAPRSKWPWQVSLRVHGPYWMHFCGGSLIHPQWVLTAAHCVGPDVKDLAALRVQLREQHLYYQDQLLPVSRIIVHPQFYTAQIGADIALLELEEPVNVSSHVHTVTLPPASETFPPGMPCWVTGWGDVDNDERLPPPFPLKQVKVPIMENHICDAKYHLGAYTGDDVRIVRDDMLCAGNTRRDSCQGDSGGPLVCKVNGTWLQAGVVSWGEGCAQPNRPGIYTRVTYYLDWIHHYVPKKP
Sequence of Vitamin K-dependent protein C (P04070 43-197 limits assumed): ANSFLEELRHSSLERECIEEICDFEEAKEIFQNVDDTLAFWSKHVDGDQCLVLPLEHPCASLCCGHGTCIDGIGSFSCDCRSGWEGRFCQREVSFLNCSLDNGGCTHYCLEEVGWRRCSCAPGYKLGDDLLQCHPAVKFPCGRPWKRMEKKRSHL
Sequence of Vitamin K-dependent protein C (P04070 212-461 limits assumed): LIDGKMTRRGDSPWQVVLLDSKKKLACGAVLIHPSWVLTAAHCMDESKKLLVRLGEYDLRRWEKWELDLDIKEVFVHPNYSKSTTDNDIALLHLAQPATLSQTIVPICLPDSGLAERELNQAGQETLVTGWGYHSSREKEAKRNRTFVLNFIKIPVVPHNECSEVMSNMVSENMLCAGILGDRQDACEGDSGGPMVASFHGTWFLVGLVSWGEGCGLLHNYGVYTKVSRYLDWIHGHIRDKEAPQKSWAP
Sequence of Plasminogen (P00747 97-580 limits assumed): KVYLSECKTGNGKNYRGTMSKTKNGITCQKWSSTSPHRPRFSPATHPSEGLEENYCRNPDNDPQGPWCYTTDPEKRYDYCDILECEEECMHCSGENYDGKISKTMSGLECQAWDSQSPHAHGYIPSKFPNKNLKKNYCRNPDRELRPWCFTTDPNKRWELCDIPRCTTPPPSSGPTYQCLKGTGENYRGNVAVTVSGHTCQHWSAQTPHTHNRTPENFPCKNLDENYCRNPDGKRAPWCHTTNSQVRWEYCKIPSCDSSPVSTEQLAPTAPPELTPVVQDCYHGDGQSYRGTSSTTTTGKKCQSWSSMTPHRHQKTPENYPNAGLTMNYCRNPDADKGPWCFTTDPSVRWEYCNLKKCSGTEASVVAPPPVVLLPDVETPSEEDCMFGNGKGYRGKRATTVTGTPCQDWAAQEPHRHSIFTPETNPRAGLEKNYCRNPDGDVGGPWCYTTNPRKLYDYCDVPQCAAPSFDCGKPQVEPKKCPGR
Sequence of Plasminogen (P00747 581-810 limits assumed): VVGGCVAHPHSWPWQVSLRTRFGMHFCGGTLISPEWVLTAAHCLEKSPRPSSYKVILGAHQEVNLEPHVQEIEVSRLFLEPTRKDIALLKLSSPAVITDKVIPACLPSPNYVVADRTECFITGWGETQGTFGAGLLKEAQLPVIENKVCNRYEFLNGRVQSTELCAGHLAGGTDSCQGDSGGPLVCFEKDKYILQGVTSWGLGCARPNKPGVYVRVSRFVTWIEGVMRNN
Sequence of Chymotrypsinogen B (P17538 34-164 limits assumed, other chains not shown): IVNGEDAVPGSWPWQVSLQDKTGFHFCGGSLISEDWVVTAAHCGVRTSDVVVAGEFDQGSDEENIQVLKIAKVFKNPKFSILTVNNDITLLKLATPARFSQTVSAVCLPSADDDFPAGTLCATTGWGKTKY
Sequence of Chymotrypsinogen B (P17538 167-263 limits assumed, other chains not shown): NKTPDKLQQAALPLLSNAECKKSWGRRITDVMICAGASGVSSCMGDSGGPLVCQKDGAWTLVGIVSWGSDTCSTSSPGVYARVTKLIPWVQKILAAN
Sequence of Plasma kallikrein (P03952 20-390 limits assumed): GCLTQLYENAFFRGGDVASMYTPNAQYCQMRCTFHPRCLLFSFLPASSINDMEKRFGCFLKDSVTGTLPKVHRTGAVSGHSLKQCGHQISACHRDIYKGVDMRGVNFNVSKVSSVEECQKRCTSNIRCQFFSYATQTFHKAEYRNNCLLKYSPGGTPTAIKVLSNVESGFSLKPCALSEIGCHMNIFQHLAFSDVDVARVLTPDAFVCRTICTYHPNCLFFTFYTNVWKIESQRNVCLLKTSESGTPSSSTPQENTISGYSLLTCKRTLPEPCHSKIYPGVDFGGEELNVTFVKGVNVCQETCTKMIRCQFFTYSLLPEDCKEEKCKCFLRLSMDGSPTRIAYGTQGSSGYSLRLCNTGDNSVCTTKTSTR
Sequence of Plasma kallikrein (P03952 391-638 limits assumed): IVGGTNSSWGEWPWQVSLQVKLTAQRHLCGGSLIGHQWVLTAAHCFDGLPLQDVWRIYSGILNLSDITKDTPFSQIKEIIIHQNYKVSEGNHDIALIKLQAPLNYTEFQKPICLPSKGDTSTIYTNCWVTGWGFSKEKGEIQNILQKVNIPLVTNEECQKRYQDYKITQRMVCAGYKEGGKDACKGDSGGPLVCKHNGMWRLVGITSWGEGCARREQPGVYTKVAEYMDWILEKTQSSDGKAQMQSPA
Sequence of Coagulation factor IX (P00740 47-191 limits assumed): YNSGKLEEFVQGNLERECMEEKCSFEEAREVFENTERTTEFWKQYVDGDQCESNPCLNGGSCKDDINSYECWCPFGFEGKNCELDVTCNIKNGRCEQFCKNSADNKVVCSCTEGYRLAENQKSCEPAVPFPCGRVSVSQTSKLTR
Sequence of Coagulation factor IX (P00740 227-461 limits assumed): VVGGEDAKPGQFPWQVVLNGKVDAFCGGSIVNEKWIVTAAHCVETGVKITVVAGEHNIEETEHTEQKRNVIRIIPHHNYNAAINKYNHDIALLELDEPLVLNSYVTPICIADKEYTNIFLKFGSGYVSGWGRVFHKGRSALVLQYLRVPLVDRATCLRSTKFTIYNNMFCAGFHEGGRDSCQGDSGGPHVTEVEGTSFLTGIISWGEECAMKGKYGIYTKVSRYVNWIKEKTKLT
Sequence of Coagulation factor X (P00742 41-179 limits assumed): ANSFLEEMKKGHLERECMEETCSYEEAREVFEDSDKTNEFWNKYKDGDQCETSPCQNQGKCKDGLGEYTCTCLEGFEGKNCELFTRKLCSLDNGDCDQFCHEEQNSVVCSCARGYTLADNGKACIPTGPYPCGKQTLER
Sequence of Coagulation factor X (P00742 235-488 limits assumed): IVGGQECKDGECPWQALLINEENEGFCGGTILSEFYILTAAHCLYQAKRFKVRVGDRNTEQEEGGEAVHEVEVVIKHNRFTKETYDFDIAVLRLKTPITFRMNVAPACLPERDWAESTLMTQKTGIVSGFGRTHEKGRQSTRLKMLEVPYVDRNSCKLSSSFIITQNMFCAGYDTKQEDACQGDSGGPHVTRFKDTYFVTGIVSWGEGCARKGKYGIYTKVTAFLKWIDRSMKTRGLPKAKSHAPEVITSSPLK

Structure (SMILES)	Ki app [8] [µM]	Ki [12] [nM]	Selectivity ratio [13]	further results
Cl.NCCCC[C@H](NC(=O)c1ccc(F)cc1)C(=O)c1noc(Cc2ccc(OCCc3ccc(Cl)c(Cl)c3)cc2)n1	1.1			Vd [1]: 7.8 L/kg; MRT [2]: 2.88 h; AUC [3]: 0.3 µM·h; half-life [4]: 174 min; Fa [5]: 12%; bioavailability [6]: 9%; half-life [7]: 135 min; Cmax [9]: 1010 nM; clearance [10]: 45 mL/min/kg; Vd [11]: 0.457 L/kg
COC(=O)N[C@@H](CCCCN)C(=O)c1noc(Cc2ccc(OCCc3ccc(Cl)c(Cl)c3)cc2)n1.Cl	2.2	17	129	
CCCCCC(=O)N[C@@H](CCCCN)C(=O)c1noc(Cc2ccc(OCCc3ccc(Cl)c(Cl)c3)cc2)n1.Cl	0.18	9.8	18	
Cc1cc(C(=O)N[C@@H](CCCCN)C(=O)c2noc(Cc3ccc(OCCc4ccc(Cl)c(Cl)c4)cc3)n2)c(C)o1.Cl	3.9	46	85	
Cl.NCCCC[C@H](NC(=O)C1CCOC1)C(=O)c1noc(Cc2ccc(OCCc3ccc(Cl)c(Cl)c3)cc2)n1 (stereo partly drawn)	1.1	22	50	
CN(C)C(=O)N[C@@H](CCCCN)C(=O)c1noc(Cc2ccc(OCCc3ccc(Cl)c(Cl)c3)cc2)n1.Cl	0.85	9.6	89	
Cl.NCCCC[C@H](NC(=O)c1ccc(Cl)cc1)C(=O)c1noc(Cc2ccc(OCCc3ccc(Cl)c(Cl)c3)cc2)n1	2.55	6.55	389	
CCN(CC)C(=O)N[C@@H](CCCCN)C(=O)c1noc(Cc2ccc(OCCc3ccc(Cl)c(Cl)c3)cc2)n1.Cl	2.4	18	133	
Cl.NCCCC[C@H](NC(=O)N1CCCC1)C(=O)c1noc(Cc2ccc(OCCc3ccc(Cl)c(Cl)c3)cc2)n1	3.8	32	119	
Cl.NCCCC[C@H](NC(=O)N1CCCCC1)C(=O)c1noc(Cc2ccc(OCCc3ccc(Cl)c(Cl)c3)cc2)n1	1.4	9.2	152	
CC(C)C(=O)N[C@@H](CCCCN)C(=O)c1noc(Cc2ccc(OCCc3ccc(Cl)c(Cl)c3)cc2)n1.Cl	0.12	6.8	18	
CC(C)(C)COC(=O)N[C@@H](CCCCN)C(=O)c1noc(Cc2ccc(OCCc3ccc(Cl)c(Cl)c3)cc2)n1.Cl	1.9	11	173	
Cl.NCCCC[C@H](NC(=O)C1CCCC1)C(=O)c1noc(Cc2ccc(OCCc3ccc(Cl)c(Cl)c3)cc2)n1	0.3	6.5	46	
CCOC(=O)N[C@@H](CCCCN)C(=O)c1noc(Cc2ccc(OCCc3ccccc3)cc2)n1	0.19	5.4		Ki [14]: 64 µM; Ki [15]: 430 nM; Ki [16]: 43 µM; Ki [17]: > 150 µM; Ki [18]: > 150 µM; Ki [19]: > 150 µM; Ki [20]: > 150 µM; Ki [21]: > 150 µM; Ki [22]: > 150 µM
Cl.NCCCC[C@H](NC(=O)c1ccc(F)c(F)c1)C(=O)c1noc(Cc2ccc(OCCc3ccc(Cl)c(Cl)c3)cc2)n1	3.3			Ki [14]: > 150 µM; Ki [15]: 910 nM; Ki [16]: 83 µM; Ki [17]: > 150 µM; Ki [18]: > 150 µM; Ki [19]: > 150 µM; Ki [20]: > 150 µM; Ki [21]: > 150 µM; Ki [22]: > 150 µM; Ki [23]: > 150 µM; Ki [24]: > 150 µM; Ki [25]: > 150 µM; Ki [26]: > 150 µM; Ki [27]: > 150 µM

Continued by falling Ki [12], values first:

Ki app [8] [µM]	Ki [12] [nM]	Selectivity ratio [13]	Structure (SMILES)	further results
1.1	6.2	177	Cl.NCCCC[C@H](NC(=O)c1ccccc1F)C(=O)c1noc(Cc2ccc(OCCc3ccc(Cl)c(Cl)c3)cc2)n1	
1.7	5.8	293	Cl.NCCCC[C@H](NC(=O)c1cccc(F)c1)C(=O)c1noc(Cc2ccc(OCCc3ccc(Cl)c(Cl)c3)cc2)n1	
0.87	5.7	153	Cl.NCCCC[C@H](NC(=O)N1CCOCC1)C(=O)c1noc(Cc2ccc(OCCc3ccc(Cl)c(Cl)c3)cc2)n1	
0.5	5	100	COCCOC(=O)N[C@@H](CCCCN)C(=O)c1noc(Cc2ccc(OCCc3ccc(Cl)c(Cl)c3)cc2)n1.Cl	
0.415	5	83	CC(C)OC(=O)N[C@@H](CCCCN)C(=O)c1noc(Cc2ccc(OCCc3ccc(Cl)c(Cl)c3)cc2)n1.Cl	
0.38	4.7	81	CCOC(=O)N[C@@H](CCCCN)C(=O)c1noc(Cc2ccc(OCCc3ccc(Cl)c(Cl)c3)cc2)n1.Cl	
	4.6	10	NCCCC[C@H](NC(=O)C1CC1)C(=O)c1noc(Cc2ccc(OCCc3ccc(Cl)c(Cl)c3)cc2)n1	
0.625	3.75	167	CC(C)(C)C(=O)N[C@@H](CCCCN)C(=O)c1noc(Cc2ccc(OCCc3ccc(Cl)c(Cl)c3)cc2)n1.Cl	
0.19	3.7	51	COCC(=O)N[C@@H](CCCCN)C(=O)c1noc(Cc2ccc(OCCc3ccc(Cl)c(Cl)c3)cc2)n1.Cl	
1.15	3.25	354	Cl.NCCCC[C@H](NC(=O)c1ccc(F)cc1F)C(=O)c1noc(Cc2ccc(OCCc3ccc(Cl)c(Cl)c3)cc2)n1	
0.22	2.9	76	Cl.NCCCC[C@H](NC(=O)C(F)(F)F)C(=O)c1noc(Cc2ccc(OCCc3ccc(Cl)c(Cl)c3)cc2)n1	
0.48	2.3	209	Cl.NCCCC[C@H](NC(=O)c1ccco1)C(=O)c1noc(Cc2ccc(OCCc3ccc(Cl)c(Cl)c3)cc2)n1	
